Measurements as given in US9718738B2 (priority 2014, dated 2017).

Assays:
[1] = tested on: grain corn; conditions: in vivo
[2] = tested on: long white bunching onions; conditions: in vivo

Substance: urea
- grain yield [1]: 180.5 bu/acre
- plant height after 6 weeks [2]: performing poorer than no nitrogen fertilizer at all
